From ChEMBL document CHEMBL1201862, “PubChem BioAssay data set” (2004) come the findings set out here.

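Compound exposure: 48 hours, 5 concentrations, 96-well plates. GI50 is the concentration that inhibits growth by half.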 The source made the active and inactive calls. Rule as the data show it: active = GI50 up to about 1.1 µM and inactive = higher.

Some test systems named below: SF-539; M14; HCC 2998; A549; LOX IMVI; SF-268; ACHN; HOP-92; OVCAR-5; TK-10; MDA-MB-231; NCI-H460; UACC-62; SW-620; U-251; KM12; MCF7; HT-29; A498.
Holding throughout (assay): inhibition of tumour cell growth, NCI panel, 48 h

Regarding `COc1cc(C(=O)Nc2nnc(S(N)(=O)=O)s2)cc(OC)c1OC`, the GI50 in the test on SF-539, in the test with M14, in the test on HCC 2998, in the test with A549, in the test with LOX IMVI and with SF-268 was > 100 µM (inactive) each time. For the same compound, the GI50 in the test on ACHN is > 100 µM (inactive); in the test with HOP-92, 65.6 µM (inactive); with OVCAR-5, > 100 µM (inactive); in the test with TK-10, > 100 µM (inactive); in the test with MDA-MB-231, > 100 µM (inactive); in the test with NCI-H460, > 100 µM (inactive). Besides, the GI50 in the test with UACC-62, with SW-620, with U-251, with KM12 and in the test with MCF7 was > 100 µM (inactive) in each case.
For the compound `CC(C)=CC(=O)OC1C2C(C)=CC(=O)C(O)C2(C)C2C3(O)OCC24C(CC(=O)OC14)C(C)C3O` (stereo not drawn), the GI50 with SF-539 was 0.00505 µM (active); with M14, 0.0023 µM (active); in the test on HCC 2998 it was 0.0128 µM (active); with A549, 0.152 µM (active); in the test on LOX IMVI it was 0.0015 µM (active); in the test with SF-268, 0.029 µM (active). Further, the GI50 with ACHN is 0.022 µM (active); in the test with HOP-92 it was 0.00684 µM (active); in the test on OVCAR-5 it was 0.0101 µM (active); with TK-10, 0.0216 µM (active); with MDA-MB-231 it was 0.0168 µM (active); in the test on NCI-H460 it was 0.0294 µM (active). Moreover, the GI50 with UACC-62 was 0.00925 µM (active); with SW-620, 0.00822 µM (active); in the test on HT-29 it was 0.0104 µM (active); in the test on A498, 0.117 µM (active); with U-251, 0.00324 µM (active); with KM12, 0.0139 µM (active).
Take `COc1ccc(C2CC(c3ccccc3)=Nc3c(-c4ccccc4)nnn32)cc1` (stereo not drawn): the GI50 in the test with SF-539 is 85.3 µM (inactive); in the test with M14, > 100 µM (inactive); in the test on A549, 39.2 µM (inactive); in the test with LOX IMVI, > 100 µM (inactive); with SF-268, > 100 µM (inactive); in the test with ACHN, 17 µM (inactive). In addition, the GI50 was > 100 µM (inactive) in the test on OVCAR-5; 85.1 µM (inactive) in the test on MDA-MB-231; > 100 µM (inactive) in the test with NCI-H460; 55.7 µM (inactive) in the test on UACC-62; > 100 µM (inactive) in the test on SW-620; > 100 µM (inactive) with HT-29. Besides, the GI50 was > 100 µM (inactive) in the test with A498, 9.84 µM (inactive) in the test on U-251, 46.9 µM (inactive) with KM12 and > 100 µM (inactive) with MCF7.
On to `N#Cc1nsnc1-c1nc(-c2nsnc2C#N)nc(-c2nsnc2C#N)n1`, for which the GI50 in the test on SF-539, with HCC 2998, in the test on LOX IMVI, with SF-268, with ACHN and in the test with OVCAR-5 was > 100 µM (inactive) each time. The GI50 was 71.4 µM (inactive) in the test on TK-10; > 100 µM (inactive) in the test with MDA-MB-231; > 100 µM (inactive) in the test on NCI-H460; > 100 µM (inactive) in the test with UACC-62; > 100 µM (inactive) in the test with SW-620; > 100 µM (inactive) with HT-29. The GI50 with A498 was > 100 µM (inactive); with U-251, > 100 µM (inactive); in the test on KM12, 96.2 µM (inactive); in the test with MCF7, > 100 µM (inactive).
As to `CCOC(=O)C(=O)N/N=C1\C(=O)Nc2ccccc21`, the GI50 with M14, in the test with HCC 2998, in the test on A549, with LOX IMVI, with SF-268 and in the test with ACHN was > 100 µM (inactive) throughout. Moreover, the GI50 in the test with OVCAR-5, with TK-10, in the test with MDA-MB-231, with NCI-H460, in the test on UACC-62 and with SW-620 was > 100 µM (inactive) each time. Moreover, the GI50 in the test with A498, in the test with U-251, in the test on KM12 and in the test on MCF7 was > 100 µM (inactive) each time.
As for `c1ccc2c(c1)SC1=Nc3sc4ccccc4[n+]3CN12`, the GI50 was 20.5 µM (inactive) with SF-539; 22 µM (inactive) in the test with M14; 1.04 µM (active) in the test with A549; 17.4 µM (inactive) in the test with SF-268; 32.8 µM (inactive) in the test with ACHN; 7.53 µM (inactive) in the test on HOP-92. Moreover, the GI50 with OVCAR-5 is 15 µM (inactive); in the test on TK-10 it was 14.8 µM (inactive); with MDA-MB-231 it was 18.3 µM (inactive); with NCI-H460 it was 15.3 µM (inactive); in the test on UACC-62, 15.5 µM (inactive); with SW-620, 10.4 µM (inactive). The GI50 is 12.6 µM (inactive) with HT-29, 3.3 µM (inactive) in the test on U-251, 2.34 µM (inactive) with KM12 and 16.4 µM (inactive) in the test with MCF7.
On to `CCOC(=O)Cn1nnc2ccc(Nc3nc4ccccc4nc3-c3ccccc3)cc21`, for which the GI50 in the test with SF-539 is 59.6 µM (inactive); in the test on M14, 95.5 µM (inactive); in the test on HCC 2998, 17.3 µM (inactive); in the test on A549 it was > 100 µM (inactive); in the test with LOX IMVI, > 100 µM (inactive); in the test on SF-268, 65.5 µM (inactive). The GI50 is > 100 µM (inactive) in the test on ACHN; > 100 µM (inactive) with HOP-92; > 100 µM (inactive) in the test on OVCAR-5; 25.4 µM (inactive) in the test with TK-10; 48.6 µM (inactive) with NCI-H460; > 100 µM (inactive) in the test with UACC-62. Also, the GI50 with SW-620 was > 100 µM (inactive); in the test with HT-29 it was > 100 µM (inactive); with A498 it was > 100 µM (inactive); in the test with U-251, 71.4 µM (inactive); in the test on KM12, > 100 µM (inactive); with MCF7 it was > 100 µM (inactive).
In the case of `Cc1nn(-c2ccccc2)c2c1N=C(C(=O)O)CC(c1ccccc1)=N2`, the GI50 in the test on SF-539, in the test on M14, with HCC 2998, in the test with A549, in the test with LOX IMVI and with SF-268 was > 10 µM (inactive) throughout. The GI50 with ACHN, in the test with HOP-92, with TK-10, in the test on MDA-MB-231, in the test with UACC-62 and in the test with SW-620 was > 10 µM (inactive) in each case. Besides, the GI50 in the test with HT-29, with U-251, with KM12 and in the test with MCF7 was > 10 µM (inactive) throughout.
For the compound `COc1ccc(Cc2c3cc(O)c([O-])cc3cc[n+]2C)cc1`, the GI50 with SF-539 was 19.1 µM (inactive); with M14 it was 11.4 µM (inactive); in the test on HCC 2998 it was 42.6 µM (inactive); in the test on A549 it was 30.8 µM (inactive); with LOX IMVI, 13.3 µM (inactive); in the test with SF-268 it was 13.5 µM (inactive). Further, the GI50 with ACHN is 6.93 µM (inactive); in the test with HOP-92 it was 47.9 µM (inactive); in the test with OVCAR-5 it was 33.7 µM (inactive); in the test on TK-10, 98.4 µM (inactive); in the test with NCI-H460, 5.68 µM (inactive); with UACC-62, 23.9 µM (inactive). Moreover, the GI50 with SW-620 is 36.1 µM (inactive); in the test on HT-29, 52.7 µM (inactive); in the test with A498, 42 µM (inactive); in the test with U-251, 12.7 µM (inactive); with KM12, 40.2 µM (inactive).
As to `N=C(N)NS(=O)(=O)c1ccc(NNc2c3ccccc3nc3ccccc23)cc1`, the GI50 is 14.3 µM (inactive) in the test with SF-539; 12.8 µM (inactive) with M14; 12.4 µM (inactive) with HCC 2998; 9.1 µM (inactive) with A549; 3.59 µM (inactive) with LOX IMVI; 10.4 µM (inactive) in the test with SF-268. Moreover, the GI50 is 3.63 µM (inactive) with ACHN; 2.96 µM (inactive) with HOP-92; 17.6 µM (inactive) with OVCAR-5; 16.4 µM (inactive) in the test on TK-10; 15.7 µM (inactive) in the test on MDA-MB-231; 2.7 µM (inactive) in the test with NCI-H460. Also, the GI50 in the test with UACC-62 is 11.9 µM (inactive); in the test on SW-620, 9.31 µM (inactive); in the test with HT-29, 7.28 µM (inactive); with U-251, 5.97 µM (inactive); in the test with KM12, 11.2 µM (inactive); in the test on MCF7, 2.48 µM (inactive).
In the case of `C/C(=N\NC(=O)c1ccc(Cl)cc1)c1nc2cccnc2[nH]1`, the GI50 is 18.2 µM (inactive) in the test on SF-539; 36.2 µM (inactive) in the test on M14; > 100 µM (inactive) in the test with HCC 2998; 30.2 µM (inactive) in the test on A549; 12.2 µM (inactive) in the test on LOX IMVI; 17.1 µM (inactive) in the test on SF-268. Besides, the GI50 with ACHN is 15.7 µM (inactive); with OVCAR-5, > 100 µM (inactive); with TK-10, 15.2 µM (inactive); in the test with MDA-MB-231, 36.8 µM (inactive); with NCI-H460, 14.7 µM (inactive); in the test with UACC-62 it was 20.7 µM (inactive). Further, the GI50 is 28.9 µM (inactive) with SW-620; 45.9 µM (inactive) in the test with HT-29; 43.8 µM (inactive) in the test with A498; 8.93 µM (inactive) with U-251; 24.8 µM (inactive) with KM12; 30.2 µM (inactive) in the test with MCF7.
Consider `COc1cc([N+](=O)[O-])c(S(=O)(=O)O)cc1NS(=O)(=O)c1ccc(C)cc1`, for which the GI50 in the test with SF-539, with M14, with A549, in the test on LOX IMVI, in the test on SF-268 and in the test on ACHN was > 100 µM (inactive) in each case. The GI50 with OVCAR-5, in the test with TK-10, with MDA-MB-231, in the test on NCI-H460, with UACC-62 and in the test on SW-620 was > 100 µM (inactive) throughout. Besides, the GI50 in the test on HT-29, in the test with A498, with U-251, in the test on KM12 and with MCF7 was > 100 µM (inactive) throughout.
